Here are results for two sequences from US6034230A, “Nucleic acids encoding myocardial peptides” (priority 1999, dated 2000).

For the data set, the system named is Balb/c mice. Nature of the data set: Oligodeoxynucleotides as immunostimulators: immunization with M7A-alpha peptide plus oligodeoxynucleotide, inflammatory heart disease at day 21. Conditions: for Severity of inflammatory heart disease (score) / Prevalence of inflammatory heart disease: Table 2, day 21; for Severity of inflammatory heart disease (score): about 10 nmol oligodeoxynucleotide + about 50 micrograms M7A-alpha, score scale of Example 1; for Immunostimulatory / adjuvant activity: with M7A-alpha peptide, in the absence of Freund's complete adjuvant. Type of data set: in vivo.

Where [1] appears, read: about 10 nmol oligodeoxynucleotide as adjuvant + about 50 micrograms M7A-alpha, Freund's incomplete adjuvant, days 0 and 7.

Regarding “GTACTGACGTTTACTCTTGG (chemistry not given here) [CpG, oligonucleotide from DNA encoding 60 kDa cysteine rich outer membrane protein of Chlamydia trachomatis, containing a CpG motif]”, the “Immunostimulatory / adjuvant activity” value is reported as “potent immunostimulator”. Further, the “Severity of inflammatory heart disease (score)” value (Freund's incomplete adjuvant) turned out to be 1.2 ± 0.4. The “Prevalence of inflammatory heart disease” value under setting [1] is 5/5. Moreover, where the note is “negative control: about 10 nmol oligodeoxynucleotide without peptide”, the “Prevalence of inflammatory heart disease” value is on record as 0/5.

On to “GTACTGAGCTTTACTCTTGG (chemistry not given here) [non-CpG, counterpart of the CpG oligo not containing the CpG motif, reference compound]”, for which the “Immunostimulatory / adjuvant activity” value is given as “hardly effective as an adjuvant”. For the same sequence, the “Severity of inflammatory heart disease (score)” value (Freund's incomplete adjuvant) was determined as 1.0 ± 0.0. Moreover, the “Prevalence of inflammatory heart disease” value under setting [1] is given as 1/5.
